Consider 22 compounds from patent US7279321B2, “Methods for increasing the resistance of a host cell to aromatic carboxylic acids” (priority 2003, dated 2007).

In brackets after ≈: the same amount, converted by molar mass.

What all share (type): cell-based
The subject of one data set is E. coli DPD2444 (yhcP−). Description: microbe, parasite or virus in culture. Particulars: for MIC, DPD2444 (yhcP−): 16 to 18 hours at 37° C., 0.01% tetrazolium violet; for Fold Diff: MIC MG1655 versus MIC DPD2444; for MIC: Escherichia coli, read-out: MIC, DPD2444 (yhcP−); for defined as substrate of the YhcP efflux pump by this genetic test: MIC difference at least 2-fold and rank at least 2. As for the experimental part:
(§1) Additional compounds were tested for growth inhibition of E. coli MG1655 (yhcP^+) and DPD2444 (yhcP^−) in Vogel-Bonner medium with glucose as the carbon source and with 0.01% tetrazolium violet added as an indicator of viability. A series of two-fold dilutions of each chemical was made to the wells of a clear 96-well microplate in 50 μl volume. To these wells was added 50 μl of an overnight culture in Vogel Bonner medium with glucose as a carbon source of either MG1655 or DPD2444 that had been previously diluted 500-fold into fresh medium. The plates were incubated at 37° C. without shaking for 16 to 18 hours. The purple color in each well was visually scored. A score of 4+ indicated full purple color equivalent to a no chemical control well. Scores of 3+, 2+, or 1+ indicated decreasing amounts of purple color. A score of − indicated the complete absence of color. The MIC was defined as the lowest tested concentration that gave complete absence of color. The rank of difference between strains was defined as the score of pigment color for E. coli MG1655 in wells containing the concentration of a given chemical at the MIC for DPD24444. When MG1655 had no color, the score was 0. When MG 1655 was scored at 1+, the score was 1, when scored at 2+, the score was 2, etc.

For a further data set, the system named is E. coli MG1655 (yhcP+). Description: microbe, parasite or virus in culture. Particulars: for MIC, MG1655 (yhcP+): 16 to 18 hours at 37° C., 0.01% tetrazolium violet; for Rank Diff: score of pigment color for MG1655 at the MIC for DPD2444 (0 = no color, 4 = full purple color); for MIC: Escherichia coli, MG1655, read-out: MIC, MG1655 (yhcP+). As for the experimental part:
as §1

The subject of data set [1] is E. coli strain DPD2444 (yhcP−, strain 16) compared with MG1655 (yhcP+, strain 14). Description: Phenotype MicroArray chemical sensitivity test (Biolog). Here is the method: To further define substrates of this efflux system, other molecules were tested with this genetic test. […] E. coli strains DPD2444 (yhcP^−) and MG1655 (yhcP^+) were tested for inhibition by a large number of chemicals at Biolog Inc. (Hayward, Calif.) using the Phenotype MicroArray™ 1-20. The basis of this technology has been described in a recent publication (Bochner et al., Genome Res., 11:1246-1255 (2001)). The chemical sensitivity test was done with 240 compounds at 4 concentrations each. These chemicals included aromatic and heterocyclic molecules, such as acriflavin, dichloro-8-hydroxyquinoline, 9-aminoacridine, fusaric acid, salicylic acid, phenylethanol, o-cresol, m-cresol, p-cresol, pentachlorophenol, coumarin, DL 3-phenyl lactic acid, and cinnamic acid. Also included were numerous antibiotics and other antimicrobial compounds, including several weak acids and other compounds that would disrupt proton flux. Cinnamic acid was the only compound of the 240 tested for which strain DPD2444 was hypersensitive as compared with MG1655. The report regarding the increased sensitivities of strain DPD2444 (strain 16) compared with MG1655 (strain 14) is quoted below in Table 6.

The test system of data set [2] is yhcP gene (co-transcribed with yhcQ and yhcR). Description: expression of yhcP upon treatment of E. coli cells with aromatic carboxylic acids.

Take `O=C(O)c1ccc(C(=O)O)c2ccccc12` [1,4-naphthalenedicarboxyylic acid]: in the data set on E. coli DPD2444 (yhcP−), the “MIC, DPD2444 (yhcP−)” value was determined as 10 mM (≈ 2160 µg/mL) and the “Fold Diff” value is reported as 1. Also, in the data set with E. coli MG1655 (yhcP+), the “MIC, MG1655 (yhcP+)” value was 10 mM (≈ 2160 µg/mL) and the “Rank Diff” value is recorded as 0.
Regarding `Oc1cccc2c(O)cccc12` [1,5-dihydroxynaphthalene], in the data set on E. coli DPD2444 (yhcP−), the MIC is 0.25 mM (≈ 40 µg/mL) and the “Fold Diff” value is 2. In the data set on E. coli MG1655 (yhcP+), the MIC is 0.5 mM (≈ 80.1 µg/mL) and the “Rank Diff” value is listed as 1.
Turning to `Oc1ccc2c(O)cccc2c1` [1,6-dihydroxynaphthalene], in the data set with E. coli DPD2444 (yhcP−), the MIC was determined as 0.25 mM (≈ 40 µg/mL) and the “Fold Diff” value came to 2. Further, in the data set on E. coli MG1655 (yhcP+), the MIC came out at 0.5 mM (≈ 80.1 µg/mL) and the “Rank Diff” value came out at 1.
For the compound `O=C(O)c1ccc2ccccc2c1O` [1-hydroxy-2-naphthoic acid], in the data set on E. coli DPD2444 (yhcP−), the MIC was determined as 0.62 mM (≈ 117 µg/mL) and the “Fold Diff” value is listed as 1. For the same compound, in the data set on E. coli MG1655 (yhcP+), the MIC came to 0.62 mM (≈ 117 µg/mL) and the “Rank Diff” value was determined as 0.
Consider `O=C(O)c1cccc2ccccc12` [1-naphthoic acid], for which, in the data set with E. coli DPD2444 (yhcP−), the MIC is 2.5 mM (≈ 430 µg/mL) and the “Fold Diff” value worked out at 1. In addition, in the data set on E. coli MG1655 (yhcP+), the MIC was found to be 2.5 mM (≈ 430 µg/mL) and the “Rank Diff” value is 0.
Regarding `O=C(O)c1cccc(O)c1O` [2,3-dihydroxybenzoic acid], in the data set with E. coli DPD2444 (yhcP−), the MIC was determined as 10 mM (≈ 1540 µg/mL) and the “Fold Diff” value is 1. For the same compound, in the data set with E. coli MG1655 (yhcP+), the MIC was 10 mM (≈ 1540 µg/mL) and the “Rank Diff” value is 0.
As for `O=C(O)c1cc2ccccc2cc1C(=O)O` [2,3-naphthalenedicarboxylic acid], in the data set on E. coli DPD2444 (yhcP−), the MIC came to 80 mM (≈ 17300 µg/mL) and the “Fold Diff” value was found to be 1. For the same compound, in the data set on E. coli MG1655 (yhcP+), the MIC worked out at 80 mM (≈ 17300 µg/mL) and the “Rank Diff” value amounted to 0.
In the case of `COc1cccc(OC)c1O` [2,6-dimethoxyphenol], in the data set on E. coli DPD2444 (yhcP−), the MIC is 5 mM (≈ 771 µg/mL) and the “Fold Diff” value is 1. Further, in the data set with E. coli MG1655 (yhcP+), the MIC is 5 mM (≈ 771 µg/mL) and the “Rank Diff” value was determined as 0.
As for `Oc1ccc2ccc(O)cc2c1` [2,7-dihydroxynaphthalene], in the data set with E. coli DPD2444 (yhcP−), the MIC worked out at 0.31 mM (≈ 49.7 µg/mL) and the “Fold Diff” value worked out at 2. Besides, in the data set on E. coli MG1655 (yhcP+), the MIC turned out to be 0.62 mM (≈ 99.3 µg/mL) and the “Rank Diff” value was found to be 1.
For `O=C(O)c1ccccc1-c1ccccc1` [2-biphenylcarboxylic acid], in the data set on E. coli DPD2444 (yhcP−), the MIC was determined as 2.5 mM (≈ 496 µg/mL) and the “Fold Diff” value turned out to be 1. Moreover, in the data set on E. coli MG1655 (yhcP+), the MIC turned out to be 2.5 mM (≈ 496 µg/mL) and the “Rank Diff” value came to 0.
As for `O=C(O)C=Cc1ccccc1O` [2-hydroxycinnamate], in the data set with E. coli DPD2444 (yhcP−), the “MIC, DPD2444 (yhcP−)” value was 10 mM (≈ 1640 µg/mL); the “Fold Diff” value came out at 2; the “defined as substrate of the YhcP efflux pump by this genetic test” value is “substrates of the YhcP efflux pump”. Also, in the data set on E. coli MG1655 (yhcP+), the “MIC, MG1655 (yhcP+)” value is given as 20 mM (≈ 3280 µg/mL) and the “Rank Diff” value is recorded as 2.
As for `O=C(O)c1ccc2ccccc2c1` [2-naphthoic acid], in the data set on E. coli DPD2444 (yhcP−), the MIC came to 10 mM (≈ 1720 µg/mL) and the “Fold Diff” value turned out to be 2. For the same compound, in the data set with E. coli MG1655 (yhcP+), the MIC turned out to be 20 mM (≈ 3440 µg/mL) and the “Rank Diff” value is 1.
Turning to `O=C(O)C=Cc1ccc(O)c(O)c1` [3,4-dihydroxycinnamate], in the data set on E. coli DPD2444 (yhcP−), the “MIC, DPD2444 (yhcP−)” value stood at 0.62 mM (≈ 112 µg/mL) and the “Fold Diff” value stood at 1. Also, in the data set on E. coli MG1655 (yhcP+), the “MIC, MG1655 (yhcP+)” value is recorded as 0.62 mM (≈ 112 µg/mL) and the “Rank Diff” value turned out to be 0.
For the compound `COc1cc(C=CC(=O)O)cc(OC)c1O` [3,5-dimethoxy-4-hydroxycinnamate], in the data set on E. coli DPD2444 (yhcP−), the “MIC, DPD2444 (yhcP−)” value is on record as 10 mM (≈ 2240 µg/mL) and the “Fold Diff” value is given as 1. Moreover, in the data set with E. coli MG1655 (yhcP+), the “MIC, MG1655 (yhcP+)” value is listed as 10 mM (≈ 2240 µg/mL) and the “Rank Diff” value came out at 0.
For the compound `O=C(O)c1cc2ccccc2cc1O` [3-hydroxy-2-naphthoic acid], in the data set with E. coli DPD2444 (yhcP−), the MIC worked out at 1.2 mM (≈ 226 µg/mL) and the “Fold Diff” value is on record as 1. In the data set with E. coli MG1655 (yhcP+), the MIC was determined as 1.2 mM (≈ 226 µg/mL) and the “Rank Diff” value is listed as 0.
For the compound `O=C(O)c1ccc2cc(O)ccc2c1` [6-hydroxy-2-naphthoic acid], in the data set on E. coli DPD2444 (yhcP−), the MIC worked out at 2.5 mM (≈ 470 µg/mL), the “Fold Diff” value worked out at 8 and the “defined as substrate of the YhcP efflux pump by this genetic test” value is on record as “substrates of the YhcP efflux pump”. In the data set on E. coli MG1655 (yhcP+), the MIC came to 20 mM (≈ 3760 µg/mL) and the “Rank Diff” value worked out at 3.
Regarding `O=C(O)c1ccccc1` [Benzoate], in the data set with E. coli DPD2444 (yhcP−), the “MIC, DPD2444 (yhcP−)” value amounted to 25 mM (≈ 3050 µg/mL) and the “Fold Diff” value was 1. Also, in the data set on E. coli MG1655 (yhcP+), the “MIC, MG1655 (yhcP+)” value turned out to be 25 mM (≈ 3050 µg/mL) and the “Rank Diff” value was determined as 0.
Consider `O=C(O)C=Cc1ccccc1` [CA, cinnamic acid], for which the “sensitivity of strain DPD2444 as compared with MG1655 (in words)” value in data set [1] (240 compounds at 4 concentrations each) is “hypersensitive”. The “Phenotypes Lost - Slower Growth/Sensitivity: Difference” value in data set [1] (PM19, well C 11, Strain 16 (DPD2444) vs Strain 14 (MG1655)) was −83. Further, in the data set on E. coli DPD2444 (yhcP−), the MIC worked out at 10 mM (≈ 1480 µg/mL) and the “Fold Diff” value came to 2. For the same compound, the “difference in growth inhibition of the two strains (in words)” value in the data set with E. coli DPD2444 (yhcP−) (MG1655 versus DPD2444) is “slight difference”. In addition, in the data set with E. coli MG1655 (yhcP+), the MIC is 20 mM (≈ 2960 µg/mL) and the “Rank Diff” value came to 1. For the same compound, in data set [2], the “expression of the yhcP gene upon treatment of E. coli cells” value is reported as “highly upregulated”.
As to `COC(=O)c1ccc(O)cc1` [Methyl paraben], in the data set with E. coli DPD2444 (yhcP−), the MIC stood at 3.8 mM (≈ 578 µg/mL) and the “Fold Diff” value was found to be 1. Also, in the data set with E. coli MG1655 (yhcP+), the MIC was 3.8 mM (≈ 578 µg/mL) and the “Rank Diff” value came out at 0.
For `O=C(O)c1ccccc1O` [Salicylate], in the data set on E. coli DPD2444 (yhcP−), the “MIC, DPD2444 (yhcP−)” value is listed as 100 mM (≈ 13800 µg/mL) and the “Fold Diff” value is 1. In the data set on E. coli MG1655 (yhcP+), the “MIC, MG1655 (yhcP+)” value is listed as 100 mM (≈ 13800 µg/mL) and the “Rank Diff” value is reported as 0.
With `C=C1CCOC1=O` [Tulipalin], in the data set on E. coli DPD2444 (yhcP−), the “MIC, DPD2444 (yhcP−)” value is reported as 0.008% and the “Fold Diff” value turned out to be 1. Besides, in the data set on E. coli MG1655 (yhcP+), the “MIC, MG1655 (yhcP+)” value was found to be 0.008% and the “Rank Diff” value was 0.
`C[S+](C)[O-]` [dimethyl sulfoxide (DMSO), dimethyl sulfoxide]: in the data set with E. coli DPD2444 (yhcP−), the “MIC, DPD2444 (yhcP−)” value amounted to 20% and the “Fold Diff” value was found to be 1. Besides, in the data set with E. coli MG1655 (yhcP+), the “MIC, MG1655 (yhcP+)” value was determined as 20% and the “Rank Diff” value is 0.
